Patent publication US12435092B2, “Substituted imidazo[1,2-A]quinazolines as inhibitors of PARG” (858 Therapeutics, Inc., priority 2022, dated 2025)

Target: T1, cellular PARG (Homo sapiens, UniProt Q86W56)
T1 construct: endogenous in cells; host or cells: HeLa
Test: Nuclear PAR accumulation assay (immunofluorescence high-content imaging)
Type: cell-based
Settings: HeLa cells, 1 hour compound treatment then MMS 50 μg/mL for an additional hour
Summary of the method: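 HeLa cells pretreated 1 h at 37 °C with compound, then 1 h with 50 μg/mL MMS (final), methanol-fixed and immunostained for PAR with DAPI nuclear counterstain. Nuclear PAR intensity and percent PAR-positive cells quantified by high-content imaging (≥1,000 cells/well). IC50 by four-parameter logistic fit, normalized to 0.1% DMSO and reference-compound controls.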

T1 sequence (Q86W56 whole entry): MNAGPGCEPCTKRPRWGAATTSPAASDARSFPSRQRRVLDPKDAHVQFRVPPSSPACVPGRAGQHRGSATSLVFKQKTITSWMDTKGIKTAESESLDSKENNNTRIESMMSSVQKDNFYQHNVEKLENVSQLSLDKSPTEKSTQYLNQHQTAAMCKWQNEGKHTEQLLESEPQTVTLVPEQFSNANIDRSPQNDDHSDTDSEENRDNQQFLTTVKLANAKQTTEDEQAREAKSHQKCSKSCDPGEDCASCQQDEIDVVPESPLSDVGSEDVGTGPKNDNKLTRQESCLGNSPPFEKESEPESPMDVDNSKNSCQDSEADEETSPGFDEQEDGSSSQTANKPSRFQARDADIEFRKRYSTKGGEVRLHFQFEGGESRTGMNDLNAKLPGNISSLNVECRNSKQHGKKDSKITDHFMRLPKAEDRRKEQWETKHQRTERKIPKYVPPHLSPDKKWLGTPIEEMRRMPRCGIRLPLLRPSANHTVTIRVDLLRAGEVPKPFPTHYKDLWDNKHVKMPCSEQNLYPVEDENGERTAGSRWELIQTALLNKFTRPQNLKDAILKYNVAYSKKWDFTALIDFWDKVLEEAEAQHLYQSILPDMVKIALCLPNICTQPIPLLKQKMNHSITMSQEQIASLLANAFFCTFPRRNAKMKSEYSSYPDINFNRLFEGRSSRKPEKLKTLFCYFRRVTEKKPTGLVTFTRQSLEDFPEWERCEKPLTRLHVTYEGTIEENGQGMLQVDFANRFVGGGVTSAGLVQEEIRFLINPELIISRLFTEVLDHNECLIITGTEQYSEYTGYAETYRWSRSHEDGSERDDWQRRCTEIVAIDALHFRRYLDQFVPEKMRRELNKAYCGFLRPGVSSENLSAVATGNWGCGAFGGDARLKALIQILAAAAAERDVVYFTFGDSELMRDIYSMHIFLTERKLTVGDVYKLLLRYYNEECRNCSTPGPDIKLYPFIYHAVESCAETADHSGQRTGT

SMILES: Cn1cc(CN2C(=O)c3cc(S(=O)(=O)NC4(C)CC4)ccc3N3CC4(CCOC4)N=C23)cn1 (centres unmarked) [Example 103, 4′-((1-methyl-1H-pyrazol-4-yl)methyl)-N-(1-methylcyclopropyl)-5′-oxo-4,4′,5,5′-tetrahydro-1′H,2H-spiro[furan-3,2′-imidazo[1,2-a]quinazoline]-7′-sulfonamide]
- IC50: ≤ 100 nM

SMILES: Cn1cc(CN2C(=O)c3cc(S(=O)(=O)NC4(C)CC4)ccc3N3C2=NCC32CCC2)cn1 [Example 104, 4′-((1-methyl-1H-pyrazol-4-yl)methyl)-N-(1-methylcyclopropyl)-5′-oxo-4′,5′-dihydro-2′H-spiro[cyclobutane-1,1′-imidazo[1,2-a]quinazoline]-7′-sulfonamide]
- IC50: ≤ 100 nM

SMILES: Cn1cc(CN2C(=O)c3cc(S(=O)(=O)NC4(C)CC4)ccc3N3C2=NCC32COC2)cn1 [Example 105, 4-((1-methyl-1H-pyrazol-4-yl)methyl)-N-(1-methylcyclopropyl)-5-oxo-4,5-dihydro-2H-spiro[imidazo[1,2-a]quinazoline-1,3′-oxetane]-7-sulfonamide]
- IC50: 100 to 1000 nM

SMILES: C[C@H]1CN2C(=N1)N(Cc1cnn(C)c1)C(=O)c1cc(S(=O)(=O)NC3(C)CC3)ccc12 [Example 106, (S)-2-methyl-4-((1-methyl-1H-pyrazol-4-yl)methyl)-N-(1-methylcyclopropyl)-5-oxo-1,2,4,5-tetrahydroimidazo[1,2-a]quinazoline-7-sulfonamide]
- IC50: ≤ 100 nM

SMILES: C[C@@H]1CN2C(=N1)N(Cc1cnn(C)c1)C(=O)c1cc(S(=O)(=O)NC3(C)CC3)ccc12 [Example 107, (R)-2-methyl-4-((1-methyl-1H-pyrazol-4-yl)methyl)-N-(1-methylcyclopropyl)-5-oxo-1,2,4,5-tetrahydroimidazo[1,2-a]quinazoline-7-sulfonamide]
- IC50: 100 to 1000 nM

SMILES: C[C@@H]1N=C2N(Cc3cnn(C)c3)C(=O)c3cc(S(=O)(=O)NC4(C)CC4)ccc3N2[C@@H]1C [Example 108, (1R,2S)-1,2-dimethyl-4-((1-methyl-1H-pyrazol-4-yl)methyl)-N-(1-methylcyclopropyl)-5-oxo-1,2,4,5-tetrahydroimidazo[1,2-a]quinazoline-7-sulfonamide]
- IC50: ≤ 100 nM

SMILES: C[C@@H]1[C@@H](C)N=C2N(Cc3cnn(C)c3)C(=O)c3cc(S(=O)(=O)NC4(C)CC4)ccc3N21 [Example 109, (1R,2R)-1,2-dimethyl-4-((1-methyl-1H-pyrazol-4-yl)methyl)-N-(1-methylcyclopropyl)-5-oxo-1,2,4,5-tetrahydroimidazo[1,2-a]quinazoline-7-sulfonamide]
- IC50: ≤ 100 nM

SMILES: C[C@@H]1N2C(=NC1(C)C)N(Cc1cnn(C)c1)C(=O)c1cc(S(=O)(=O)NC3(C)CC3)ccc12 [Example 110, (S)-1,2,2-trimethyl-4-((1-methyl-1H-pyrazol-4-yl)methyl)-N-(1-methylcyclopropyl)-5-oxo-1,2,4,5-tetrahydroimidazo[1,2-a]quinazoline-7-sulfonamide]
- IC50: 100 to 1000 nM

SMILES: C[C@H]1N2C(=NC1(C)C)N(Cc1cnn(C)c1)C(=O)c1cc(S(=O)(=O)NC3(C)CC3)ccc12 [Example 111, (R)-1,2,2-trimethyl-4-((1-methyl-1H-pyrazol-4-yl)methyl)-N-(1-methylcyclopropyl)-5-oxo-1,2,4,5-tetrahydroimidazo[1,2-a]quinazoline-7-sulfonamide]
- IC50: ≤ 100 nM

SMILES: Cc1ncc(CN2C(=O)c3cc(S(=O)(=O)NC4(C)CC4)ccc3N3C2=NC[C@H]3C)[nH]1 [Example 112, (R)-1-methyl-4-((2-methyl-1H-imidazol-5-yl)methyl)-N-(1-methylcyclopropyl)-5-oxo-1,2,4,5-tetrahydroimidazo[1,2-a]quinazoline-7-sulfonamide]
- IC50: 1000 to 10000 nM

SMILES: [2H]C([2H])(c1sc(C)nc1C)N1C(=O)c2cc(S(=O)(=O)NC3(C)CC3)c(F)cc2N2C1=NC[C@H]2C [Example 113, (R)-4-(dideutero(2,4-dimethylthiazol-5-yl)methyl)-8-fluoro-1-methyl-N-(1-methylcyclopropyl)-5-oxo-1,2,4,5-tetrahydroimidazo[1,2-a]quinazoline-7-sulfonamide]
- IC50: ≤ 100 nM

SMILES: C[C@@H]1CN=C2N1c1ccc(S(=O)(=O)NC3(C)CC3)cc1C(=O)N2C1(c2cnn(C)c2)CC1 [Example 114, (R)-1-methyl-4-(1-(1-methyl-1H-pyrazol-4-yl)cydopropyl)-N-(1-methylcyclopropyl)-5-oxo-1,2,4,5-tetrahydroimidazo[1,2-a]quinazoline-7-sulfonamide]
- IC50: 1000 to 10000 nM

SMILES: Cc1ncn(C)c1CN1C(=O)c2cc(S(=O)(=O)NC3(C)CC3)ccc2N2C1=NC[C@H]2C [Example 115, (R)-4-((1,4-dimethyl-1H-imidazol-5-yl)methyl)-1-methyl-N-(1-methylcyclopropyl)-5-oxo-1,2,4,5-tetrahydroimidazo[1,2-a]quinazoline-7-sulfonamide]
- IC50: 100 to 1000 nM

SMILES: Cn1cc(CN2C(=O)c3cc(S(=O)(=O)NC4(C)CC4)ccc3N3CC4(COC4)N=C23)cn1 [Example 116, 4-((1-methyl-1H-pyrazol-4-yl)methyl)-N-(1-methylcyclopropyl)-5-oxo-4,5-dihydro-1H-spiro[imidazo[1,2-a]quinazoline-2,3′-oxetane]-7-sulfonamide]
- IC50: 100 to 1000 nM

SMILES: CCC1(C)CN2C(=N1)N(Cc1cnn(C)c1)C(=O)c1cc(S(=O)(=O)NC3(C)CC3)ccc12 (centres unmarked) [Example 117, 2-ethyl-2-methyl-4-((1-methyl-1H-pyrazol-4-yl)methyl)-N-(1-methylcyclopropyl)-5-oxo-1,2,4,5-tetrahydroimidazo[1,2-a]quinazoline-7-sulfonamide]
- IC50: ≤ 100 nM

SMILES: C[C@@H]1CN=C2N(Cc3cnn4c3CCC4)C(=O)c3cc(S(=O)(=O)NC4(C)CC4)ccc3N21 [Example 118, (R)-4-((5,6-dihydro-4H-pyrrolo[1,2-b]pyrazol-3-yl)methyl)-1-methyl-N-(1-methylcyclopropyl)-5-oxo-1,2,4,5-tetrahydroimidazo[1,2-a]quinazoline-7-sulfonamide]
- IC50: ≤ 100 nM

SMILES: C[C@@H]1CN=C2N(Cc3cnn4c3OCCC4)C(=O)c3cc(S(=O)(=O)NC4(C)CC4)ccc3N21 [Example 119, (R)-4-((6,7-dihydro-5H-pyrazolo[5,1-b][1,3]oxazin-3-yl)methyl)-1-methyl-N-(1-methylcyclopropyl)-5-oxo-1,2,4,5-tetrahydroimidazo[1,2-a]quinazoline-7-sulfonamide]
- IC50: ≤ 100 nM

SMILES: Cc1nc(C)c(CN2C(=O)c3cc(S(=O)(=O)NC4(C)CC4)ccc3N3C2=NC[C@H]3C)[nH]1 [Example 120, (R)-4-((2,4-dimethyl-1H-imidazol-5-yl)methyl)-1-methyl-N-(1-methylcyclopropyl)-5-oxo-1,2,4,5-tetrahydroimidazo[1,2-a]quinazoline-7-sulfonamide]
- IC50: 1000 to 10000 nM

SMILES: Cc1nnsc1CN1C(=O)c2cc(S(=O)(=O)NC3(C)CC3)ccc2N2C1=NC[C@H]2C [Example 121, (R)-1-methyl-4-((4-methyl-1,2,3-thiadiazol-5-yl)methyl)-N-(1-methylcyclopropyl)-5-oxo-1,2,4,5-tetrahydroimidazo[1,2-a]quinazoline-7-sulfonamide]
- IC50: ≤ 100 nM

SMILES: [2H]C([2H])(c1cnn2c1CCC2)N1C(=O)c2cc(S(=O)(=O)NC3(C)CC3)ccc2N2C1=NC[C@H]2C [Example 122, (R)-4-(dideutero(5,6-dihydro-4H-pyrrolo[1,2-b]pyrazol-3-yl)methyl)-1-methyl-N-(1-methylcyclopropyl)-5-oxo-1,2,4,5-tetrahydroimidazo[1,2-a]quinazoline-7-sulfonamide]
- IC50: ≤ 100 nM

SMILES: C[C@@H]1CN=C2N(Cc3cnn(C)c3)C(=O)c3cc(S(=O)(=O)NC4(C)CC4)cc(Cl)c3N21 [Example 124, (R)-9-chloro-1-methyl-4-((1-methyl-1H-pyrazol-4-yl)methyl)-N-(1-methylcyclopropyl)-5-oxo-1,2,4,5-tetrahydroimidazo[1,2-a]quinazoline-7-sulfonamide]
- IC50: ≤ 100 nM

SMILES: COCC1(C)CN2C(=N1)N(Cc1cnn(C)c1)C(=O)c1cc(S(=O)(=O)NC3(C)CC3)ccc12 (centres unmarked) [Example 127, 2-(methoxymethyl)-2-methyl-4-((1-methyl-1H-pyrazol-4-yl)methyl)-N-(1-methylcyclopropyl)-5-oxo-1,2,4,5-tetrahydroimidazo[1,2-a]quinazoline-7-sulfonamide]
- IC50: 100 to 1000 nM

SMILES: [2H]C([2H])(c1cnn(C)c1)N1C(=O)c2cc(S(=O)(=O)NC3(C)CC3)cc(Cl)c2N2C1=NC[C@H]2C [Example 128, (R)-9-chloro-4-(dideutero(1-methyl-1H-pyrazol-4-yl)methyl)-1-methyl-N-(1-methylcyclopropyl)-5-oxo-1,2,4,5-tetrahydroimidazo[1,2-a]quinazoline-7-sulfonamide]
- IC50: ≤ 100 nM

SMILES: C[C@@H]1CN=C2N(Cc3cnn(C)c3)C(=O)c3cc(S(=O)(=O)NC4(C)CC4)cc(Br)c3N21 [Example 129, (R)-9-bromo-1-methyl-4-((1-methyl-1H-pyrazol-4-yl)methyl)-N-(1-methylcyclopropyl)-5-oxo-1,2,4,5-tetrahydroimidazo[1,2-a]quinazoline-7-sulfonamide]
- IC50: ≤ 100 nM

SMILES: C[C@@H]1CN=C2N(Cc3cnn(C)c3)C(=O)c3cc(S(=O)(=O)NC4(C)CC4)cc(N4CCN(C(=O)N(C)C)CC4)c3N21 [Example 130, (R)—N,N-dimethyl-4-(1-methyl-4-((1-methyl-1H-pyrazol-4-yl)methyl)-7-(N-(1-methylcyclopropyl)sulfamoyl)-5-oxo-1,2,4,5-tetrahydroimidazo[1,2-a]quinazolin-9-yl)piperazine-1-carboxamide]
- IC50: ≤ 100 nM

SMILES: C[C@@H]1CN=C2N(Cc3cnn(C)c3)C(=O)c3cc(S(=O)(=O)NC4(C)CC4)cc(C4=CCN(C)CC4)c3N21 [Example 131, (R)-1-methyl-9-(1-methyl-1,2,3,6-tetrahydropyridin-4-yl)-4-((1-methyl-1H-pyrazol-4-yl)methyl)-N-(1-methylcyclopropyl)-5-oxo-1,2,4,5-tetrahydroimidazo[1,2-a]quinazoline-7-sulfonamide]
- IC50: ≤ 100 nM
